Columns and labels:
[1] = tested on: ABUTH: velvetleaf (Abutilon theophrasti); experiment: Post-Emergent Test I herbicidal activity; format: in vivo; details: Abutilon theophrasti, post-emergence, 336 h, read-out: Visual Growth Reduction (%)-14 Days after Application ABUTH; for pest or weed control at 140 g/ha: Table 3, 140 g ai/ha; for pest or weed control at 70 g/ha: Table 3, 70 g ai/ha
How it was run: (§1)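 Greenhouse plants at first-second true leaf stage sprayed post-emergence by track sprayer at 187 L/ha with compound in acetone/DMSO/water/isopropanol carrier with crop oil concentrate and Triton X-155, top rate plus ½× to 1/16× serial rates. Injury scored visually at 14 d, 0-100% versus untreated plants; GR20, GR50, GR80 from probit analysis.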

[2] = tested on: CHEAL: lambsquarters (Chenopodium album); experiment: Post-Emergent Test I herbicidal activity; format: in vivo; details: Chenopodium album, post-emergence, 336 h, read-out: Visual Growth Reduction (%)-14 Days after Application CHEAL; for pest or weed control at 140 g/ha: Table 3, 140 g ai/ha; for pest or weed control at 70 g/ha: Table 3, 70 g ai/ha
How it was run: as §1

[3] = tested on: CYPES: yellow nutsedge (Cyperus esculentus); experiment: Post-Emergent Test I herbicidal activity; format: in vivo; details: post-emergence, 336 h, read-out: Visual Growth Reduction (%)-14 Days after Application CYPES; for pest or weed control at 140 g/ha: Table 3, 140 g ai/ha; for pest or weed control at 70 g/ha: Table 3, 70 g ai/ha
How it was run: as §1

[4] = tested on: ECHCG: barnyardgrass (Echinochloa crus-galli); experiment: Post-Emergent Test I herbicidal activity; format: in vivo; details: post-emergence, 336 h, read-out: Visual Growth Reduction (%)-14 Days after Application ECHCG; for pest or weed control at 140 g/ha: Table 3, 140 g ai/ha; for pest or weed control at 70 g/ha: Table 3, 70 g ai/ha
How it was run: (§2)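 Foliar spray, 187 L/ha, track sprayer; plants at 1st–2nd true leaf, 7–21 d old. Carrier: acetone/DMSO + aqueous acetone/IPA/crop oil/Triton X-155; high rate plus ½×–1/16× dilutions. Subirrigated; visual % injury vs untreated at 14 d.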

[5] = tested on: EPHHL: wild poinsettia (Euphorbia heterophylla); experiment: Post-Emergent Test I herbicidal activity; format: in vivo; details: post-emergence, 336 h, read-out: Visual Growth Reduction (%)-14 Days after Application EPHHL; for pest or weed control at 140 g/ha: Table 3, 140 g ai/ha; for pest or weed control at 70 g/ha: Table 3, 70 g ai/ha
How it was run: as §1

[6] = tested on: ORYSA: rice (Oryza sativa); experiment: Post-Emergent Test I herbicidal activity; format: in vivo; details: post-emergence, 336 h, read-out: Visual Growth Reduction (%)-14 Days after Application ORYSA; for pest or weed control at 140 g/ha: Table 3, 140 g ai/ha; for pest or weed control at 70 g/ha: Table 3, 70 g ai/ha
How it was run: as §2

ZEAMX: corn (Zea mays) = experiment: Post-Emergent Test I herbicidal activity; format: in vivo; details: Zea mays, post-emergence, 336 h, read-out: Visual Growth Reduction (%)-14 Days after Application ZEAMX; for pest or weed control at 140 g/ha: Table 3, 140 g ai/ha; for pest or weed control at 70 g/ha: Table 3, 70 g ai/ha
How it was run: as §1

SMILES | pest or weed control at 140 g/ha [1] [%] | pest or weed control at 140 g/ha [2] [%] | pest or weed control at 140 g/ha [3] [%] | pest or weed control at 140 g/ha [4] [%] | pest or weed control at 140 g/ha [5] [%] | pest or weed control at 140 g/ha [6] [%] | pest or weed control at 140 g/ha (ZEAMX: corn (Zea mays)) [%] | melting point [°C] | also measured
COC(=O)c1nc(-c2ccc(Cl)cc2)c(Cl)c(N)c1OC [Compound 44, methyl 4-amino-5-chloro-6-(4-chlorophenyl)-3-methoxypicolinate] | 50 | 100 | 100 | 0 | 0 | 0 | 15 | 139 to 141 | 
COC(=O)c1nc(-c2ccc(Cl)cc2)c(F)c(N)c1OC [Compound 31, methyl 4-amino-6-(4-chlorophenyl)-5-fluoro-3-methoxypicolinate] | 100 | 100 | 100 | 95 | 100 | 15 | 85 | 93 to 94 | 
COc1c(C(=O)O)nc(-c2ccc(Cl)c(F)c2)c(F)c1N [Compound 49] | 100 | 100 | 100 | 100 | 100 | 25 | 90 | 137 | 
COC(=O)c1nc(-c2ccc(Cl)c(F)c2)c(F)c(N)c1OC [Compound 32] | 95 | 100 | 100 | 90 | 100 | 0 | 75 | 109 to 110 | 
COc1c(C(=O)O)nc(-c2ccc(I)c(F)c2F)c(F)c1N [Compound 28] |  |  |  |  |  |  |  | 145 to 147 | pest or weed control at 70 g/ha [1]: 70%; pest or weed control at 70 g/ha [2]: 100%; pest or weed control at 70 g/ha [3]: 40%; pest or weed control at 70 g/ha [4]: 80%; pest or weed control at 70 g/ha [5]: 100%; pest or weed control at 70 g/ha [6]: 5%; pest or weed control at 70 g/ha (ZEAMX: corn (Zea mays)): 70%
COc1c(C(=O)O)nc(-c2ccc(C(F)(F)F)nc2)c(F)c1N [Compound 63] | 90 | 100 | 100 | 95 | 100 | 50 | 80 | 160 to 162 | 
COc1c(C(=O)O)nc(-c2cc(F)c(I)cc2F)c(F)c1N [Compound 60] |  |  |  |  |  |  |  | 132 to 134 | pest or weed control at 70 g/ha [1]: 60%; pest or weed control at 70 g/ha [2]: 90%; pest or weed control at 70 g/ha [3]: 50%; pest or weed control at 70 g/ha [4]: 95%; pest or weed control at 70 g/ha [5]: 100%; pest or weed control at 70 g/ha [6]: 15%; pest or weed control at 70 g/ha (ZEAMX: corn (Zea mays)): 75%
COc1c(C(=O)O)nc(-c2ccc(C(F)(F)F)c(F)c2F)c(F)c1N [Compound 56] | 80 | 90 | 50 | 100 | 100 | 10 | 75 | 133 to 135 | 
COC(=O)c1nc(-c2ccc(Cl)c(F)c2)c(F)c(N)c1SC [Compound 93, Methyl 4-amino-6-(4-chloro-3-fluorophenyl)-5-fluoro-3-(methylthio)picolinate] | 30 | 90 | 0 | 0 | 50 | 0 | 0 | 125 to 126 | 
COC(=O)c1nc(-c2ccc3c(c2)OCO3)c(F)c(N)c1OC [Compound 37] | 55 | 100 | 100 | 100 | 100 | 0 | 75 | 110 to 112 | 
COC(=O)c1nc(-c2ccc(C(F)(F)F)nc2)c(F)c(N)c1OC [Compound 40] | 80 | 100 | 100 | 50 | 100 | 0 | 70 | 130 to 132 | 
COc1c(C(=O)O)nc(-c2cc(F)c(Br)cc2F)c(F)c1N [Compound 59] |  |  |  |  |  |  |  | 147 to 148 | pest or weed control at 70 g/ha [1]: 80%; pest or weed control at 70 g/ha [2]: 100%; pest or weed control at 70 g/ha [3]: 50%; pest or weed control at 70 g/ha [4]: 100%; pest or weed control at 70 g/ha [5]: 100%; pest or weed control at 70 g/ha [6]: 5%; pest or weed control at 70 g/ha (ZEAMX: corn (Zea mays)): 70%
COc1c(C(=O)O)nc(-c2ccc3c(c2)OCO3)c(F)c1N [Compound 53] | 80 | 100 | 100 | 80 | 0 | 15 | 75 | 223 to 225 | 
CNc1cc(-c2ccc(Cl)cc2)nc(C(=O)OC)c1N [Compound 86, Methyl 3-amino-6-(4-chlorophenyl)-4-(methylamino)picolinate] |  |  |  |  |  |  |  | 178 to 200 | pest or weed control at 280 g/ha ([1]; Table 3, 280 g ai/ha): 40%; pest or weed control at 280 g/ha ([2]; Table 3, 280 g ai/ha): 95%; pest or weed control at 280 g/ha ([3]; Table 3, 280 g ai/ha): 0%; pest or weed control at 280 g/ha ([5]; Table 3, 280 g ai/ha): 50%; pest or weed control at 280 g/ha ([6]; Table 3, 280 g ai/ha): 0%; pest or weed control at 280 g/ha (ZEAMX: corn (Zea mays); Table 3, 280 g ai/ha): 0%
COc1c(C(=O)O)nc(-c2ccc(F)cc2)c(F)c1N [Compound 52] |  | 100 | 100 | 60 | 100 | 0 | 50 | 149 to 151 | 

From patent US9518018B2, “3-alkoxy, thioalkyl and amino-4-amino-6-(substituted)picolinates and their use as herbicides” (Dow AgroSciences LLC, priority 2011, dated 2016)
